Experimental data published in patent US20240190892A1, “PLASMA KALLIKREIN INHIBITORS” (Merck Sharp & Dohme LLC, priority 2021, published 2024).

How the values were obtained:
[1] = target: Coagulation factor XIa (Homo sapiens (Human), UniProt P03951); assay: Factor XIa Assay; format: biochemical; details: human factor XIa 0.04 nM, substrate GPR-AFC, 30 min pre-incubation at 25° C., pH 7.4; read-out: FXIa IC50
Protocol: (§1) The effectiveness of a compound of the present invention as an inhibitor of Coagulation factor XIa can be determined using a relevant purified serine protease, and an appropriate synthetic substrate. The rate of hydrolysis of the chromogenic or fluorogenic substrate by the relevant serine protease was measured both in the absence and presence of compounds of the present invention. Assays were conducted at rt or at 37° C. […] A decrease in the rate of fluorescence change in the presence of inhibitor is indicative of enzyme inhibition. Such methods are known to one skilled in the art. The results of this assay are expressed as the half-maximal inhibitory concentrations (IC50), or the inhibitory constant, Ki.
Compounds were pre-incubated for 30 min at 25° C. with human (0.04 nM) factor XIa in 50 mM HEPES buffer with 150 mM sodium chloride, 5 mM calcium chloride, 0.1% PEG 8000, pH 7.4. factor XIa enzymatic activity was determined by addition of the substrate glycine-proline-arginine-7-amido-4-trifluoromethylcoumarin (GPR-AFC) and measurement of the fluorescence at 400/505 nm after a 60 min incubation at 25° C. The % inhibition for each data point was calculated from the data and analyzed using the log (inhibitor) vs. response four parameters equation to determine the half-maximal inhibitory concentrations (IC50). The IC50 were converted to equilibrium inhibitory constants (Ki) using the Cheng-Prusoff equation.

[2] = target: Human plasma kallikrein (Homo sapiens (Human), UniProt P03952); assay: Plasma Kallikrein Assay; format: biochemical; details: purified Human plasma kallikrein 0.5 nM, substrate Acetyl-K-P-R-AFC, pH 7.4; read-out: PKal IC50
Protocol: as §1, with “plasma kallikrein” for “Coagulation factor XIa”
Plasma kallikrein determinations were made in 50 mM HEPES buffer at pH 7.4 containing 150 mM NaCl, 5 mM CaCl2, and 0.1% PEG 8000 (polyethylene glycol; Fisher Scientific). Determinations were made using purified Human plasma kallikrein at a final concentration of 0.5 nM (Enzyme Research Laboratories) and the synthetic substrate, Acetyl-K-P-R-AFC (Sigma #C6608) at a concentration of […].
Activity assays were performed by diluting a stock solution of substrate at least tenfold to a final concentration ≤0.2 Km into a solution containing enzyme or enzyme equilibrated with inhibitor. Times required to achieve equilibration between enzyme and inhibitor were determined in control experiments. The reactions were performed under linear progress curve conditions and fluorescence increase measured at 405 Ex/510 Em nm. Values were converted to percent inhibition of the control reaction (after subtracting 100% Inhibition value). IC50 was determined by inflection point from a four parameter logistic curve fit. Ki was calculated using the Cheng Prusoff equation, Ki=IC50/(1+[S]/Km)).

Sequence of Coagulation factor XIa (P03951 388-625 limits assumed): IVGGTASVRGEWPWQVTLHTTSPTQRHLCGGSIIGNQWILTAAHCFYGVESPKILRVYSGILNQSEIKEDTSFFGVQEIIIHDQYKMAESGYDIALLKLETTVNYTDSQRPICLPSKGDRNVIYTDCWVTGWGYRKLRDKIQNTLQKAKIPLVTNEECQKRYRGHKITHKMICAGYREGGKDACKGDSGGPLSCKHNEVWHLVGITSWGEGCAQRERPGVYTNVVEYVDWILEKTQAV
Sequence of Coagulation factor XIa (P03951 19-387 partner limits assumed): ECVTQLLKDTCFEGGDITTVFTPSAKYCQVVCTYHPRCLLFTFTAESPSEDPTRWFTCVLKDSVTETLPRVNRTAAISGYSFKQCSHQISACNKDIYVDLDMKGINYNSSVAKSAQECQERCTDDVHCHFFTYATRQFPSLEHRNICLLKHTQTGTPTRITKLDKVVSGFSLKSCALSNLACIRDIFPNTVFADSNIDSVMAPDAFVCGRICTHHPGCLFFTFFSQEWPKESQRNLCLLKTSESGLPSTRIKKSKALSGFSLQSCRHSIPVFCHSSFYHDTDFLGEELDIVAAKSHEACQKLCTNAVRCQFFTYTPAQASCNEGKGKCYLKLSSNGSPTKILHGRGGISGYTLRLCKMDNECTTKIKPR
Sequence of Human plasma kallikrein (P03952 391-638 limits assumed): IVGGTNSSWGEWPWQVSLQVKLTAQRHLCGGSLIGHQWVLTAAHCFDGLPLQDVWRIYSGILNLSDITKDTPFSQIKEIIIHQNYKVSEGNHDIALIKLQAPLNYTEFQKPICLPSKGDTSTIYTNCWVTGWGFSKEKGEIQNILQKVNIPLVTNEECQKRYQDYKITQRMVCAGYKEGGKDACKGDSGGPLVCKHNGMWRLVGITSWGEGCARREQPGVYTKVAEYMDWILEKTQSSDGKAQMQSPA
Sequence of Human plasma kallikrein (P03952 20-390 partner limits assumed): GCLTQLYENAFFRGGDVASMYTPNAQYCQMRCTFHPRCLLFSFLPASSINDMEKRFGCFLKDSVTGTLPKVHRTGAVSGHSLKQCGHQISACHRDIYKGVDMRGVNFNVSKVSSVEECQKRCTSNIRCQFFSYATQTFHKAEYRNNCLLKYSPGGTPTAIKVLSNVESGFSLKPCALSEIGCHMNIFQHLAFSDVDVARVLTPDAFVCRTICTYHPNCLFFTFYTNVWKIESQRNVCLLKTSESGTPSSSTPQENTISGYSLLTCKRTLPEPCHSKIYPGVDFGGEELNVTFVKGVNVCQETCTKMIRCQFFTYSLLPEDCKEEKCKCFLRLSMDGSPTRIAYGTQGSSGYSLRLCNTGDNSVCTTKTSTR

Structure (SMILES): CN1CCCC1c1ccc(CNC(=O)c2cnnc(N3CC[C@]4(C3)OC(=O)Nc3ccc(Cl)c(F)c34)c2)cc1 (stereo in doubt) [Example 10, (S)-6-(6-Chloro-5-fluoro-2-oxo-1,2-dihydrospiro[benzo[d][1,3]oxazine-4,3′-pyrrolidin]-1′-yl)-N-(4-(1-methylpyrrolidin-2-yl)benzyl)pyridazine-4-carboxamide]
- IC50 [1]: 10 µM
- IC50 [2]: 0.0025 µM

Structure (SMILES): O=C1Nc2ccc(Cl)c(F)c2[C@]2(CCN(c3cncc(C(=O)NCc4ccc(N5CCCC5)nc4)n3)C2)O1 [Example 2, (S)-6-(6-Chloro-5-fluoro-2-oxo-1,2-dihydrospiro[benzo[d][1,3]oxazine-4,3′-pyrrolidin]-1′-yl)-N-((6-(pyrrolidin-1-yl)pyridin-3-yl)methyl)pyrazine-2-carboxamide]
- IC50 [1]: 10 µM
- IC50 [2]: 0.0068 µM

Structure (SMILES): CC(C)N(C)Cc1ccc(CNC(=O)c2cnnc(N3CC[C@]4(C3)OC(=O)Nc3ccc(Cl)c(F)c34)c2)cc1 [Example 48, (S)-6-(6-Chloro-5-fluoro-2-oxo-1,2-dihydrospiro[benzo[d][1,3]oxazine-4,3′-pyrrolidin]-1′-yl)-N-(4-((isopropyl(methyl)amino)methyl)benzyl)pyridazine-4-carboxamide]
- IC50 [1]: 10 µM
- IC50 [2]: 0.0059 µM

Structure (SMILES): O=C1Nc2ccc(Cl)c(F)c2[C@]2(CCN(c3cc(C(=O)NCc4ccc(N5CCOCC5)nc4)cnn3)C2)O1 [Example 29, (S)-6-(6-Chloro-5-fluoro-2-oxo-1,2-dihydrospiro[benzo[d][1,3]oxazine-4,3′-pyrrolidin]-1′-yl)-N-((6-morpholinopyridin-3-yl)methyl)pyridazine-4-carboxamide]
- IC50 [1]: 10 µM
- IC50 [2]: 0.005 µM

Structure (SMILES): O=C1Nc2ccc(Cl)c(F)c2[C@]2(CCN(c3cncc(C(=O)NCc4ccc(N5CC[C@H](F)C5)nc4)n3)C2)O1 [Example 38, (S)-6-(6-Chloro-5-fluoro-2-oxo-1,2-dihydrospiro[benzo[d][1,3]oxazine-4,3′-pyrrolidin]-1′-yl)-N-((6-((S)-3-fluoropyrrolidin-1-yl)pyridin-3-yl)methyl)pyrazine-2-carboxamide]
- IC50 [1]: 10 µM
- IC50 [2]: 0.0358 µM

Structure (SMILES): O=C1Nc2ccc(Cl)c(F)c2[C@]2(CCN(c3cncc4c3CCN(Cc3ccc(Cn5ccccc5=O)cc3)C4)C2)O1 [Example 51, (S)-6-Chloro-5-fluoro-1′-(7-(4-((2-oxopyridin-1(2H)-yl)methyl)benzyl)-5,6,7,8-tetrahydro-2,7-naphthyridin-4-yl)spiro[benzo[d][1,3]oxazine-4,3′-pyrrolidin]-2(1H)-one]
- IC50 [1]: 10 µM
- IC50 [2]: 0.0459 µM

Structure (SMILES): O=C1Nc2ccc(Cl)c(F)c2[C@]2(CCN(c3cncc(C(=O)NCc4ccc5c(n4)NCCC5)n3)C2)O1 [Example 31, (S)-6-(6-Chloro-5-fluoro-2-oxo-1,2-dihydrospiro[benzo[d][1,3]oxazine-4,3′-pyrrolidin]-1′-yl)-N-((5,6,7,8-tetrahydro-1,8-naphthyridin-2-yl)methyl)pyrazine-2-carboxamide]
- IC50 [1]: 10 µM
- IC50 [2]: 0.0086 µM

Structure (SMILES): O=C(Cc1ccc(Cn2ccccc2=O)cc1)Nc1cncc(N2CC[C@]3(C2)OC(=O)Nc2ccc(Cl)c(F)c23)c1 [Example 52, (S)-N-(5-(6-Chloro-5-fluoro-2-oxo-1,2-dihydrospiro[benzo[d][1,3]oxazine-4,3′-pyrrolidin]-1′-yl)pyridin-3-yl)-2-(4-((2-oxopyridin-1(2H)-yl)methyl)phenyl)acetamide]
- IC50 [1]: 10 µM
- IC50 [2]: 0.019 µM

Structure (SMILES): Cc1cnn(Cc2ccc(CNC(=O)c3cncc(N4CC[C@]5(C4)OC(=O)Nc4ccc(Cl)c(F)c45)c3)cc2)c1 [Example 26, (S)-5-(6-Chloro-5-fluoro-2-oxo-1,2-dihydrospiro[benzo[d][1,3]oxazine-4,3′-pyrrolidin]-1′-yl)-N-(4-((4-methyl-1H-pyrazol-1-yl)methyl)benzyl)nicotinamide]
- IC50 [1]: 10 µM
- IC50 [2]: 0.0031 µM

Structure (SMILES): O=C1Nc2ccc(Cl)c(F)c2[C@]2(CCN(c3cc(C(=O)NCc4ccc(Cn5ccccc5=O)cc4)ccn3)C2)O1 [Example 16, (S)-2-(6-Chloro-5-fluoro-2-oxo-1,2-dihydrospiro[benzo[d][1,3]oxazine-4,3′-pyrrolidin]-1′-yl)-N-(4-((2-oxopyridin-1(2H)-yl)methyl)benzyl)isonicotinamide]
- IC50 [1]: 10 µM
- IC50 [2]: 0.05 µM

Structure (SMILES): O=C1Nc2ccc(Cl)c(F)c2[C@]2(CCN(c3cc(C(=O)NCc4ccc(N5CC[C@H](F)C5)nc4)cnn3)C2)O1 [Example 5, (S)-6-(6-Chloro-5-fluoro-2-oxo-1,2-dihydrospiro[benzo[d][1,3]oxazine-4,3′-pyrrolidin]-1′-yl)-N-((6-((S)-3-fluoropyrrolidin-1-yl)pyridin-3-yl)methyl)pyridazine-4-carboxamide]
- IC50 [1]: 5.65 µM
- IC50 [2]: 0.003 µM

Structure (SMILES): O=C1Nc2ccc(Cl)c(F)c2[C@]2(CCN(c3cc(C(=O)NCc4ccc(Cn5ccccc5=O)cc4)cnn3)C2)O1 [Example 17, (S)-6-(6-Chloro-5-fluoro-2-oxo-1,2-dihydrospiro[benzo[d][1,3]oxazine-4,3′-pyrrolidin]-1′-yl)-N-(4-((2-oxopyridin-1(2H)-yl)methyl)benzyl)pyridazine-4-carboxamide]
- IC50 [1]: 10 µM
- IC50 [2]: 0.0163 µM

Structure (SMILES): O=C1Nc2ccc(Cl)c(F)c2[C@]2(CCN(c3cncc(C(=O)NCc4ccc(N5CCC5)nc4)n3)C2)O1 [Example 37, (S)-N-((6-(Azetidin-1-yl)pyridin-3-yl)methyl)-6-(6-chloro-5-fluoro-2-oxo-1,2dihydrospiro[benzo[d][1,3]oxazine-4,3′-pyrrolidin]-1′-yl)pyrazine-2-carboxamide]
- IC50 [1]: 10 µM
- IC50 [2]: 0.0444 µM

Structure (SMILES): Cc1cnn(Cc2ccc(CNC(=O)c3cncc(N4CC[C@]5(C4)OC(=O)Nc4ccc(Cl)c(F)c45)c3)cn2)c1 [Example 20, (S)-5-(6-Chloro-5-fluoro-2-oxo-1,2-dihydrospiro[benzo[d][1,3]oxazine-4,3′-pyrrolidin]-1′-yl)-N-((6-((4-methyl-1H-pyrazol-1-yl)methyl)pyridin-3-yl)methyl)nicotinamide]
- IC50 [1]: 10 µM
- IC50 [2]: 0.0013 µM

Structure (SMILES): O=C1Nc2ccc(Cl)c(F)c2[C@]2(CCN(c3cncc(C(=O)NCc4ccc(N5CCOCC5)nc4)n3)C2)O1 [Example 42, (S)-6-(6-Chloro-5-fluoro-2-oxo-1,2-dihydrospiro[benzo[d][1,3]oxazine-4,3′-pyrrolidin]-1′-yl)-N-((6-morpholinopyridin-3-yl)methyl)pyrazine-2-carboxamide]
- IC50 [1]: 10 µM
- IC50 [2]: 0.0118 µM
